Consider 21 molecules from patent publication US11478474B2, “2-(3′-(hydroxymethyl)-1-methyl-5-((5-(2-methyl-4-(oxetan-3-yl)piperazin-1-yl)pyridin-2-yl)amino)-6-oxo-1,6-dihydro-[3,4′-bipyridin]-2′-yl)-7,7-dimethyl-7,8-dihydro-2H-cyclopenta[4,5]pyrrolo[1,2-a]pyrazin-1(6H)-one as a BTK inhibitor” (HUTCHISON MEDIPHARMA LIMITED, priority 2020, dated 2022).

Test [1] deals with phosphorylated BTK in Ramos cells (Homo sapiens (Human), UniProt Q06187). The test can be described thus: Determination of phosphorylated BTK in Ramos cells (BTK phospho-Y223 HTRF). Format: cell-based. The following applies: anti-human IgM + hydrogen peroxide stimulation. As to the method:
Determination of Phosphorylated BTK in Ramos Cells
(§1) 1. Reagents and Materials
Ramos cells: Ramos cells were purchased from American Standard Biological Collection Center ATCC Cell Bank, PRMI 1640 medium containing L-glutamine, 1.5 g/L of sodium bicarbonate, 2.383 g/L of HEPES solution, 0.11 g/L of sodium pyruvate and 4.5 g/L of glucose was used, added 10% fetal bovine serum FBS, and placed in a 5% CO2, 37° C. cell incubator for normal culture;
Phosphorylated BTK HTRF detection kit (BTK phospho-Y223 HTRF kit): Cisbio, Cat #63ADK017PEH;
Ramos cells were starved in PRMI 1640 medium with 1% FBS for 2 hours. The starved Ramos cells were diluted with Hank's balanced salt solution to 5.0×10^6 cells/ml, seeded in a 96-well plate with 20 μL/well (1.0×10^5 cells/well), and cultured in a 5% CO2, 37° C. cell incubator. After culturing for 1 hour, the test compound was diluted with Hank's balanced salt solution in 4-fold gradient to the corresponding concentrations, and then 5 μL/well of the diluted test compound with different concentrations (the final concentrations of the test compound were 3.0, 0.75, 0.188, 0.047, 0.012, 0.0029, 0.0007 and 0.00018 μM, and the final concentration of DMSO was 0.3%, double replicate wells) or 5 μL/well of control solution (1.5% DMSO, 8 replicate wells) were added to 20 μL/well of cell culture system, which incubated together for another hour, then 5 μL/well of a mixed solution of human immunoglobulin M (final concentration was 10 μg/mL) and hydrogen peroxide (final concentration was 3.3 mM) diluted with Hank's balanced salt solution was added to the treating wells for the test compound and the control treating wells for anti-human immunoglobulin M, and 5 μL/well of Hank's balanced salt solution was added to negative control treating wells. The plate was incubated in a 5% CO2, 37° C. cell incubator for 10 minutes.
10 μL/well of cell lysis buffer was added to each well of a 96-well plate, which was mixed well and lysed at room temperature for 30 minutes. 16 μL/well of lysis buffer was pipetted to a new 384 well plate, and then added 4 μL/well of phosphorylated BTK antibody, centrifuged (1000 rpm) for 1 minute, then shaken for 1 minute, further centrifuged (1000 rpm) for 1 minute, and finally placed in a constant temperature incubator overnight. Detection was performed on the next day.
The 384 well plate incubated overnight in the constant temperature incubator was taken out to detect the luminescence signal using the Envision microwell plate reader at the […]. The reading value at 665 nm/615 nm of each well multiplied by 104 was used as the signal value of each well.
The average signal value of the wells supplemented with the mixed solution of human immunoglobulin M (final concentration was 10 μg/mL) and hydrogen peroxide (final concentration was 3.3 mM) without the test compound was regarded as the high value, and the average signal value of the wells without immunoglobulin M stimulation and without the test compound was regarded as the low value. According to the signal value in each well, the inhibition ratio (%) of each concentration of compounds was calculated, and the 205 model in XL-Fit 5.3 software (ID Business Solutions Limited) was used to obtain an IC50 value.
The inhibition ratio is calculated as follows: inhibition ratio (%)=100%−{(treating well for the test compound−negative control treating well)/(control treating well for anti-human immunoglobulin M−negative control treating well)}×100%, wherein,
Treating well for the test compound: represents the signal value of Ramos cells treated with anti-human immunoglobulin M, hydrogen peroxide and the test compound.
Control treating well for anti-human immunoglobulin M: represents the signal value of Ramos cells treated with anti-human immunoglobulin M, hydrogen peroxide but without the test compound. […]
(Time-resolved FRET reads energy transfer from a long-lived donor to a nearby acceptor.)

For a further test, the target named is BTK recombinant protein (Homo sapiens (Human), UniProt Q06187). Put plainly: Determination of biochemical BTK (Z'-LYTE kinase assay).
BTK recombinant protein, sequence (Q06187 whole entry): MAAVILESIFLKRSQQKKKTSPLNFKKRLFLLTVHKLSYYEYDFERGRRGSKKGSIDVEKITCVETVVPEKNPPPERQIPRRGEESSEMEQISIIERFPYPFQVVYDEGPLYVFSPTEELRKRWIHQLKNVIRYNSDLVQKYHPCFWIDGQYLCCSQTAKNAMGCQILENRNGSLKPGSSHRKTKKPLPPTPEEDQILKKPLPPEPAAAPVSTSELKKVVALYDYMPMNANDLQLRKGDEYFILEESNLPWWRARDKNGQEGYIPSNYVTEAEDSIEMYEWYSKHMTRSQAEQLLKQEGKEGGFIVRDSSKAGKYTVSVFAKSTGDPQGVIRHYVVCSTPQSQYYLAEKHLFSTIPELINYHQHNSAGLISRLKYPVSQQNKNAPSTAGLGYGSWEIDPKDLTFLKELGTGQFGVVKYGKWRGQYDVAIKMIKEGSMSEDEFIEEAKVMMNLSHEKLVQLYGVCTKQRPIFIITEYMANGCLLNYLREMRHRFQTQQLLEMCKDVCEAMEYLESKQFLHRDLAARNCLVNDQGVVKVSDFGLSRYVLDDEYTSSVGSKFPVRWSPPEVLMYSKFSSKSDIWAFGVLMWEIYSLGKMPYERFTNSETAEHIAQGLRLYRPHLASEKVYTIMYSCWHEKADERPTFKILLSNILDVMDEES
Excerpt: Example 2 Determination of Biochemical BTK
as §1
BTK recombinant protein: Invitrogen, Cat #PV3363;
Z′-LYTE® kinase test kit-tyrosine 1 peptide: Invitrogen, Cat #PV3190;
Z′-LYTE® biochemical assay employs a fluorescence resonance energy transfer (FRET)—based, coupled-enzyme format and is based on the differential sensitivity of phosphorylated and non-phosphorylated peptides to proteolytic cleavage. Both ends of the short peptide substrate are labeled with two fluorescent groups to form a FRET paired combination. In the primary reaction (the Kinase Reaction), the kinase transfers the γ-phosphate of ATP to a single […] residue on the short peptide substrate. In the secondary reaction (the development reaction), the non-phosphorylated short peptides were recognized and cleaved by a site-specific protease (the development reagent). Phosphorylated short peptides can resist such cleavage. Cleavage of short peptides can disrupt the donor (such as coumarin) and receptor fluorophores (fluorescein) on the short peptides, while the phosphorylated short peptides can maintain FRET. The calculation method of the ratio is as follows, and the ratio of the respective emission signals generated by the donor fluorophores emitted (after excitation at 400 nm) to the receptors is calculated. Emission signal ratio=emitted light by coumarin (445 nm)/emitted light by fluorescein (520 nm). If the FRET short peptide is phosphorylated (such as no kinase inhibitor), the emitted light ratio will remain in a lower level. If the FRET short peptide is non-phosphorylated (such as kinase inhibitor), the emitted light ratio will be in a higher level. In this way, the inhibitory effects of different compound inhibitors on BTK kinase activity would be distinguished.
The experiment were carried out according to the instructions of the Z′-LYTE® kinase test kit-tyrosine 1 peptide. Reagent preparation: 1.33× kinase buffer: 5× kinase buffer was diluted with water to 1.33× kinase buffer; an enzyme solution: the kinase was dissolved in 1.33× kinase buffer with the final working concentration being 3.32 nM; a short peptide solution: a short peptide stock solution (1 mM dissolved in DMSO) was dissolved in 1.33× kinase buffer with the final working concentration being 2 μM; Z′-LYTE Tyr01 phosphorylated short peptide solution, 0.6 μl of stock solution (1 mM dissolved in DMSO) was dissolved in 149.4 μl of 1.33× kinase buffer; an ATP solution: an ATP stock solution (10 mM aqueous solution) was dissolved in 1.33× kinase buffer with the final working concentration being 32 μM; a color-developing solution: color-developing solution B was dissolved in color-developing buffer with the final working concentration being 1× color-developing solution; 4× compound preparation: the compound was diluted in 3-fold gradient concentration to finally obtain 4% DMSO aqueous solution containing different concentrations of the compound, with the final working concentration being 3000, 1000, 333.33, 111.11, 37.04, 12.35, 4.12, 1.37 nM, 8 concentration points in total.
Specific steps of the experiment: In the experiment, there were three control groups, each with 8 replicate wells, which were C1 100% inhibition group (no ATP), C2 0% inhibition group (with ATP), and C3 100% phosphorylation group, respectively. 2.5 μl of serially diluted compound was added to each well of a 384-well plate, with double replicate wells, and 4% DMSO solution was added to wells C1, C2, and C3. After that, except for wells C3, 2.5 μl of BTK enzyme solution was added to each remaining well, which was left to stand at 4° C. for 30 minutes. After that, except for wells C3, 2.5 μl of short peptide solution was added to each well, and 5 μl of phosphorylated short peptide solution was added to each of wells C3. 2.5 μl of 1.33× kinase buffer was added to each of wells C1 and C3, and 2.5 μl of ATP solution was added to each of the remaining wells. […]

phosphorylated BTK in Ramos cells, sequence (Q06187 whole entry): as above

Consider `Cn1ccc(Nc2cc(-c3ccnc(-n4ccn5c6c(cc5c4=O)CC(C)(C)C6)c3CO)cn(C)c2=O)n1` [Compound 81], for which the results for the 50% inhibitory concentration (IC50) (in test [1]; on BTK recombinant protein) were 0.002 µM and 0.008 µM, respectively.

As to `CCn1cc(-c2ccnc(-n3ccn4c5c(cc4c3=O)CC(C)(C)C5)c2CO)cc(Nc2ccc(N3CCOC[C@@H]3C)nn2)c1=O` [Compound 214], the half-maximal inhibitory concentration (IC50) in test [1] was 0.024 µM; on BTK recombinant protein, 0.031 µM.

For `C[C@H]1COCCN1c1ccc(Nc2cc(-c3ccnc(-n4ccn5c6c(cc5c4=O)CCC6)c3CO)cn(C)c2=O)nc1` [Compound 189], the IC50 in test [1] turned out to be 0.051 µM; on BTK recombinant protein it was 0.039 µM.

Turning to `[2H]C([2H])([2H])n1cc(-c2ccnc(-n3ccn4c5c(cc4c3=O)CC(C)(C)C5)c2CO)cc(Nc2ccc(N3CCN(C4COC4)C[C@@H]3C)cn2)c1=O` [Compound 39], the IC50 came out at 0.003 µM in test [1] and 0.024 µM at BTK recombinant protein.

Regarding `Cn1cc(-c2ccnc(-n3ccn4c5c(cc4c3=O)CC(C)(C)C5)c2CO)cc(Nc2ccc(N3C4CC3CN(C3COC3)C4)cn2)c1=O` [Compound 235], the concentration for half-maximal inhibition (IC50) is 0.013 µM in test [1] and 0.022 µM on BTK recombinant protein.

For the molecule `C[C@@H]1CN(c2ccc(Nc3cc(-c4ccnc(-n5ncn6c7c(c(F)c6c5=O)CCCC7)c4CO)cn(C)c3=O)nc2)[C@@H](C)CN1C1COC1` [Compound 221], the figures for the IC50 (in test [1]; on BTK recombinant protein) were 0.012 µM and 0.008 µM, respectively.

Take `Cn1cc(-c2ccnc(-n3ccn4c5c(c(F)c4c3=O)CCCC5)c2CO)cc(Nc2ccc(N3CCN(C4COC4)CC3(C)C)cn2)c1=O` [Compound 225]: the 50% inhibitory concentration (IC50) in test [1] turned out to be 0.009 µM; on BTK recombinant protein it was 0.011 µM.

Turning to `C[C@@H]1CN(c2ccc(Nc3cc(-c4ccnc(-n5ncn6c7c(cc6c5=O)CC(C)(C)C7)c4CO)cn(C)c3=O)nc2)[C@@H](C)CN1C1COC1` [Compound 193], the 50% inhibitory concentration (IC50) turned out to be 0.006 µM in test [1] and 0.012 µM on BTK recombinant protein.

For `COCCN1CCn2nc(Nc3cc(-c4ccnc(-n5ccn6c(c(F)c7ccccc76)c5=O)c4CO)cn(C)c3=O)cc2C1` [Compound 177], the concentration for half-maximal inhibition (IC50) in test [1] was 0.021 µM; on BTK recombinant protein, 0.006 µM.

As to `Cc1nn(-c2nccc(-c3cc(Nc4cc5n(n4)CCN(C4COC4)C5)c(=O)n(C)c3)c2CO)c(=O)c2cc3c(n12)CC(C)(C)C3` [Compound 164], the concentration for half-maximal inhibition (IC50) in test [1] came out at 0.023 µM; on BTK recombinant protein, 0.012 µM.

Turning to `C[C@H]1CN(C2COC2)CCN1c1ccc(Nc2cc(-c3ccnc(-n4ccn5c6c(cc5c4=O)CC(C)(C)C6)c3CF)cn(C)c2=O)nc1` [Compound 105], the figures for the IC50 (in test [1]; at BTK recombinant protein) were 0.011 µM and 0.067 µM, respectively.

Take `CC1CCc2c(cc3c(=O)n(-c4nccc(-c5cc(Nc6ccc(N7CCN(C8COC8)C[C@@H]7C)cn6)c(=O)n(C)c5)c4CO)ccn23)C1` (mixture of isomers) [Compound 187]: the half-inhibitory concentration (IC50) in test [1] came out at 0.028 µM; on BTK recombinant protein, 0.014 µM.

Consider `C[C@H]1CN(C2COC2)CCN1c1ccc(Nc2cc(-c3ccnc(-n4cnn5c6c(c(F)c5c4=O)CCCC6)c3CO)cn(C)c2=O)nc1` [Compound 190], for which the IC50 in test [1] stood at 0.04 µM; at BTK recombinant protein, 0.029 µM.

Turning to `COCCN1CCN(c2ccc(Nc3cc(-c4ccnc(-n5ncn6c7c(cc6c5=O)CC(C)(C)C7)c4CO)cn(C)c3=O)nc2)[C@@H](C)C1` [Compound 206], the half-inhibitory concentration (IC50) in test [1] was 0.007 µM; on BTK recombinant protein, 0.013 µM.

Take `COCCN1CCn2nc(Nc3cc(-c4ccnc(-n5ncn6c7c(cc6c5=O)CC(C)(C)C7)c4CO)cn(C)c3=O)cc2C1` [Compound 107]: the IC50 in test [1] worked out at 0.002 µM; on BTK recombinant protein, 0.012 µM.

Take `COCCN1CCn2nc(Nc3cc(-c4ccnc(-n5ncn6c7c(cc6c5=O)CC(C)(C)C7)c4CO)cn(C)c3=O)cc2[C@@H]1C` [Compound 119, 2-(3′-(hydroxymethyl)-5-((5-(2-methoxyethyl)-4-methyl-4,5,6,7-tetrahydropyrazolo[1,5-a]pyrazin-2-yl) amido)-1-methyl-6-oxo-1,6-dihydro-[3,4′-bispyridin]-2′-yl)-7,7-dimethyl-7,8-dihydro-2H-cyclopenta[4,5]pyrrolo[1,2-d][1,2,4]triazin-1(6H)-one optically Pure]: the IC50 is 0.002 µM in test [1] and 0.007 µM at BTK recombinant protein.

Consider `C[C@H]1CN(C2COC2)CCN1c1ccc(Nc2cc(-c3cncc(-n4ccn5c6c(cc5c4=O)CC(C)(C)C6)c3CO)cn(C)c2=O)nc1` [Compound 216], for which the half-maximal inhibitory concentration (IC50) in test [1] stood at 0.007 µM; on BTK recombinant protein, 0.011 µM.

Take `CCn1cc(-c2ccnc(-n3ncn4c5c(cc4c3=O)CC(C)(C)C5)c2CO)cc(Nc2ccc(N3C[C@@H](C)N(C4COC4)C[C@@H]3C)cn2)c1=O` [Compound 210]: the half-inhibitory concentration (IC50) in test [1] came to 0.019 µM; at BTK recombinant protein, 0.021 µM.

Regarding `C[C@H]1CN(C2COC2)CCN1c1ccc(Nc2cc(-c3ccnc(-n4ccn5c6c(c(Br)c5c4=O)CC(C)(C)C6)c3CO)cn(C)c2=O)nc1` [Compound 62], the results for the half-inhibitory concentration (IC50) (in test [1]; on BTK recombinant protein) were 0.003 µM and 0.021 µM, respectively.

As to `Cn1cc(-c2ccnc(-n3ncn4c5c(cc4c3=O)CCCC5)c2CO)cc(Nc2cc3n(n2)CCN(C2COC2)C3)c1=O` [Compound 166], the IC50 in test [1] was 0.121 µM; at BTK recombinant protein, 0.035 µM.

For the molecule `Cn1cc(-c2ccnc(-n3ccn4c5c(cc4c3=O)CCC5)c2CO)cc(Nc2cc3n(n2)CCN(C#N)C3)c1=O` [Compound 142], the figures for the IC50 (in test [1]; on BTK recombinant protein) were 0.06 µM and 0.051 µM, respectively.

The IC50 is the point on the concentration scale where inhibition reaches its midpoint.
